Experimental data from the supplement of paper PMC10883282.
± gives the standard deviation of the averaged measurements.

Columns and labels:
Test in all cases: relative viability vs DMSO control (72 h) (fraction); higher = more viable cells
[1] = tested on: SW1353
Procedure, shortened: (§1)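 Sarcoma cell lines in 384-well plates, seeded to reach 80–90% confluence, were given compound after 24 h and kept 72 h at 37 °C, 5% CO2, with 0.1% DMSO vehicle and a 5 µM positive control. Relative viability came from ATPLite as percent growth, averaged over up to triplicate wells. On the rescaled values, 1 equals full and 0 equals none.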

[2] = tested on: SK-ES-1
Procedure, shortened: as §1

[3] = tested on: HT1080
Procedure, shortened: as §1

[4] = tested on: RD-ES
Procedure, shortened: as §1

[5] = tested on: SW684
Procedure, shortened: as §1

[6] = tested on: SW872
Procedure, shortened: as §1

[7] = tested on: SW982
Procedure, shortened: as §1

[8] = tested on: A204
Procedure, shortened: as §1

[9] = tested on: KHOS-NP
Procedure, shortened: as §1

[10] = tested on: KHOS-240S
Procedure, shortened: as §1

[11] = tested on: SYO-1
Procedure, shortened: as §1

[12] = tested on: G401
Procedure, shortened: as §1

C[C@@H]1CN(C(=O)c2ccc(NC(=O)c3cc(O[C@H](C)c4c(Cl)ccc(F)c4Cl)c(N)nn3)cc2)C[C@H](C)N1 [Ensartinib]
Conditions	relative viability
[1], 0.00017 µM	0.959 ± 0.049
[1], 0.00051 µM	0.938 ± 0.025
[1], 0.00152 µM	0.985 ± 0.013
[1], 0.00457 µM	0.956 ± 0.029
[1], 0.01372 µM	0.955 ± 0.049
[1], 0.04115 µM	0.969 ± 0.024
[1], 0.1235 µM	0.957 ± 0.045
[1], 0.3704 µM	0.966 ± 0.026
[1], 1.111 µM	0.955 ± 0.017
[1], 3.333 µM	0.77 ± 0.012
[1], 10 µM	0.0145 ± 0.0019
[2], 0.00017 µM	0.934 ± 0.081
[2], 0.00051 µM	0.966 ± 0.045
[2], 0.00152 µM	0.987 ± 0.027
[2], 0.00457 µM	1 ± 0.04
[2], 0.01372 µM	0.974 ± 0.012
[2], 0.04115 µM	0.972 ± 0.043
[2], 0.1235 µM	0.97 ± 0.068
[2], 0.3704 µM	0.857 ± 0.072
[2], 1.111 µM	0.457 ± 0.038
[2], 3.333 µM	0.0368 ± 0.0014
[2], 10 µM	0.00643 ± 0.0012
[3], 0.00017 µM	1.02 ± 0.027
[3], 0.00051 µM	1 ± 0.06
[3], 0.00152 µM	0.993 ± 0.012
[3], 0.00457 µM	1.03 ± 0.019
[3], 0.01372 µM	1.03 ± 0.028
[3], 0.04115 µM	0.9998 ± 0.0066
[3], 0.1235 µM	1.04 ± 0.029
[3], 0.3704 µM	1.04 ± 0.034
[3], 1.111 µM	1.02 ± 0.045
[3], 3.333 µM	0.837 ± 0.0086
[3], 10 µM	0.0183 ± 0.0025
[4], 0.00017 µM	0.97 ± 0.035
[4], 0.00051 µM	0.951 ± 0.032
[4], 0.00152 µM	0.989 ± 0.042
[4], 0.00457 µM	0.963 ± 0.025
[4], 0.01372 µM	0.985 ± 0.038
[4], 0.04115 µM	0.974 ± 0.039
[4], 0.1235 µM	0.975 ± 0.029
[4], 0.3704 µM	0.826 ± 0.051
[4], 1.111 µM	0.567 ± 0.031
[4], 3.333 µM	0.0894 ± 0.0084
[4], 10 µM	0.00693 ± 0.00035
[5], 0.00017 µM	1.05 ± 0.025
[5], 0.00051 µM	1.02 ± 0.013
[5], 0.00152 µM	1.08 ± 0.042
[5], 0.00457 µM	1.06 ± 0.035
[5], 0.01372 µM	1.06 ± 0.017
[5], 0.04115 µM	1.07 ± 0.052
[5], 0.1235 µM	1.06 ± 0.034
[5], 0.3704 µM	1.05 ± 0.023
[5], 1.111 µM	0.971 ± 0.044
[5], 3.333 µM	0.829 ± 0.018
[5], 10 µM	0.113 ± 0.0034
[6], 0.00017 µM	1.02 ± 0.028
[6], 0.00051 µM	1.03 ± 0.026
[6], 0.00152 µM	1.04 ± 0.033
[6], 0.00457 µM	1.05 ± 0.02
[6], 0.01372 µM	1.06 ± 0.016
[6], 0.04115 µM	1.04 ± 0.028
[6], 0.1235 µM	1.03 ± 0.037
[6], 0.3704 µM	1.01 ± 0.037
[6], 1.111 µM	0.835 ± 0.0097
[6], 3.333 µM	0.583 ± 0.016
[6], 10 µM	0.188 ± 0.011
[7], 0.00017 µM	0.966 ± 0.046
[7], 0.00051 µM	0.95947 ± 0.00092
[7], 0.00152 µM	0.986 ± 0.043
[7], 0.00457 µM	0.973 ± 0.025
[7], 0.01372 µM	0.97 ± 0.019
[7], 0.04115 µM	0.965 ± 0.052
[7], 0.1235 µM	0.982 ± 0.017
[7], 0.3704 µM	0.855 ± 0.039
[7], 1.111 µM	0.513 ± 0.021
[7], 3.333 µM	0.206 ± 0.012
[7], 10 µM	0.009967 ± 5.8e-05
[8], 0.00017 µM	1.069 ± 0.008
[8], 0.00051 µM	1.07 ± 0.011
[8], 0.00152 µM	1.06 ± 0.036
[8], 0.00457 µM	1.05 ± 0.0042
[8], 0.01372 µM	1.05 ± 0.029
[8], 0.04115 µM	1.05 ± 0.055
[8], 0.1235 µM	1.04 ± 0.053
[8], 0.3704 µM	1.06 ± 0.056
[8], 1.111 µM	0.98 ± 0.029
[8], 3.333 µM	0.806 ± 0.053
[8], 10 µM	0.326 ± 0.053
[9], 0.00017 µM	1.02 ± 0.018
[9], 0.00051 µM	1.04 ± 0.05
[9], 0.00152 µM	1.03 ± 0.021
[9], 0.00457 µM	1.03 ± 0.029
[9], 0.01372 µM	1.04 ± 0.014
[9], 0.04115 µM	1.03 ± 0.017
[9], 0.1235 µM	1.03 ± 0.04
[9], 0.3704 µM	1.03 ± 0.03
[9], 1.111 µM	1.02 ± 0.013
[9], 3.333 µM	0.987 ± 0.025
[9], 10 µM	0.422 ± 0.069
[10], 0.00017 µM	0.995 ± 0.041
[10], 0.00051 µM	1.02 ± 0.032
[10], 0.00152 µM	1.02 ± 0.052
[10], 0.00457 µM	1 ± 0.042
[10], 0.01372 µM	1.03 ± 0.023
[10], 0.04115 µM	1.02 ± 0.015
[10], 0.1235 µM	1.01 ± 0.012
[10], 0.3704 µM	0.994 ± 0.033
[10], 1.111 µM	0.847 ± 0.034
[10], 3.333 µM	0.579 ± 0.021
[10], 10 µM	0.135 ± 0.0057
[11], 0.00017 µM	1.02 ± 0.024
[11], 0.00051 µM	1.01 ± 0.036
[11], 0.00152 µM	1 ± 0.02
[11], 0.00457 µM	0.997 ± 0.015
[11], 0.01372 µM	1.02 ± 0.011
[11], 0.04115 µM	0.981 ± 0.013
[11], 0.1235 µM	0.927 ± 0.052
[11], 0.3704 µM	0.91 ± 0.025
[11], 1.111 µM	0.6316 ± 0.0033
[11], 3.333 µM	0.175 ± 0.011
[11], 10 µM	-0.0432 ± 0.0066
[12], 0.00017 µM	0.954 ± 0.022
[12], 0.00051 µM	0.983 ± 0.024
[12], 0.00152 µM	0.98 ± 0.025
[12], 0.00457 µM	0.9873 ± 0.0051
[12], 0.01372 µM	1.01 ± 0.039
[12], 0.04115 µM	1.019 ± 0.0048
[12], 0.1235 µM	1.05 ± 0.055
[12], 0.3704 µM	0.946 ± 0.018
[12], 1.111 µM	0.771 ± 0.026
[12], 3.333 µM	0.49 ± 0.018
[12], 10 µM	0.0293 ± 0.0073
